{"source": "PubChem BioAssay AID1259407", "about": "(Chemical Carcinogenesis Research Information System (CCRIS), 2018)", "test_system": "CCRIS mutagenicity, Ames/micronucleus/aberration tests", "assay": "CCRIS mutagenicity studies", "key": {"[1]": {"settings": "Test System: AMES SALMONELLA TYPHIMURIUM, Strain/Indicator: TA98, Metabolic Activation: HAMSTER, LIVER, S-9, AROCLOR 1254 (10%), Method: PREINCUBATION"}, "[2]": {"settings": "Test System: AMES SALMONELLA TYPHIMURIUM, Strain/Indicator: TA98, Metabolic Activation: NONE, Method: PREINCUBATION"}, "[3]": {"settings": "Test System: AMES SALMONELLA TYPHIMURIUM, Strain/Indicator: TA98, Metabolic Activation: RAT, LIVER, S-9, AROCLOR 1254 (10%), Method: PREINCUBATION"}, "[4]": {"settings": "Test System: AMES SALMONELLA TYPHIMURIUM, Strain/Indicator: TA100, Metabolic Activation: HAMSTER, LIVER, S-9, AROCLOR 1254 (10%), Method: PREINCUBATION"}, "[5]": {"settings": "Test System: AMES SALMONELLA TYPHIMURIUM, Strain/Indicator: TA100, Metabolic Activation: NONE, Method: PREINCUBATION"}, "[6]": {"settings": "Test System: AMES SALMONELLA TYPHIMURIUM, Strain/Indicator: TA100, Metabolic Activation: RAT, LIVER, S-9, AROCLOR 1254 (10%), Method: PREINCUBATION"}, "[7]": {"settings": "Test System: AMES SALMONELLA TYPHIMURIUM, Strain/Indicator: TA1535, Metabolic Activation: HAMSTER, LIVER, S-9, AROCLOR 1254 (10%), Method: PREINCUBATION"}, "[8]": {"settings": "Test System: AMES SALMONELLA TYPHIMURIUM, Strain/Indicator: TA1535, Metabolic Activation: NONE, Method: PREINCUBATION"}, "[9]": {"settings": "Test System: AMES SALMONELLA TYPHIMURIUM, Strain/Indicator: TA1535, Metabolic Activation: RAT, LIVER, S-9, AROCLOR 1254 (10%), Method: PREINCUBATION"}, "[10]": {"settings": "Test System: AMES SALMONELLA TYPHIMURIUM, Strain/Indicator: TA100, Metabolic Activation: NONE, Method: STANDARD PLATE"}, "[11]": {"settings": "Test System: AMES SALMONELLA TYPHIMURIUM, Strain/Indicator: TA100, Metabolic Activation: RAT, LIVER, S-9, AROCLOR 1254, Method: STANDARD PLATE"}}, "note": "Active and inactive are the calls of the source. The rule behind the calls is not given here.", "data": [{"compound": "FC(Cl)(Cl)Cl", "values": [{"measurement": "mutagenic call", "setting": "[1]", "result": "inactive; negative"}, {"measurement": "mutagenic call", "setting": "Test System: AMES SALMONELLA TYPHIMURIUM, Strain/Indicator: TA98, Metabolic Activation: NONE, Method: GAS EXPOSURE", "result": "inactive; negative"}, {"measurement": "mutagenic call", "setting": "[2]", "result": "inactive; negative"}, {"measurement": "mutagenic call", "setting": "Test System: AMES SALMONELLA TYPHIMURIUM, Strain/Indicator: TA98, Metabolic Activation: RAT LIVER S-9, PHENOBARBITAL AND BETA-NAPHTHOFLAVONE (40%), Method: GAS EXPOSURE", "result": "inactive; negative"}, {"measurement": "mutagenic call", "setting": "[3]", "result": "inactive; negative"}, {"measurement": "mutagenic call", "setting": "[4]", "result": "inactive; negative"}, {"measurement": "mutagenic call", "setting": "Test System: AMES SALMONELLA TYPHIMURIUM, Strain/Indicator: TA100, Metabolic Activation: NONE, Method: GAS EXPOSURE", "result": "inactive; negative"}, {"measurement": "mutagenic call", "setting": "[5]", "result": "inactive; negative"}, {"measurement": "mutagenic call", "setting": "Test System: AMES SALMONELLA TYPHIMURIUM, Strain/Indicator: TA100, Metabolic Activation: RAT LIVER S-9, PHENOBARBITAL AND BETA-NAPHTHOFLAVONE (40%), Method: GAS EXPOSURE", "result": "inactive; negative"}, {"measurement": "mutagenic call", "setting": "[6]", "result": "inactive; negative"}, {"measurement": "mutagenic call", "setting": "[7]", "result": "inactive; negative"}, {"measurement": "mutagenic call", "setting": "Test System: AMES SALMONELLA TYPHIMURIUM, Strain/Indicator: TA1535, Metabolic Activation: NONE, Method: GAS EXPOSURE", "result": "inactive; negative"}, {"measurement": "mutagenic call", "setting": "[8]", "result": "inactive; negative"}, {"measurement": "mutagenic call", "setting": "Test System: AMES SALMONELLA TYPHIMURIUM, Strain/Indicator: TA1535, Metabolic Activation: RAT LIVER S-9, PHENOBARBITAL AND BETA-NAPHTHOFLAVONE (40%), Method: GAS EXPOSURE", "result": "inactive; negative"}, {"measurement": "mutagenic call", "setting": "[9]", "result": "inactive; negative"}, {"measurement": "mutagenic call", "setting": "Test System: AMES SALMONELLA TYPHIMURIUM, Strain/Indicator: TA1537, Metabolic Activation: HAMSTER, LIVER, S-9, AROCLOR 1254 (10%), Method: PREINCUBATION", "result": "inactive; negative"}, {"measurement": "mutagenic call", "setting": "Test System: AMES SALMONELLA TYPHIMURIUM, Strain/Indicator: TA1537, Metabolic Activation: NONE, Method: GAS EXPOSURE", "result": "inactive; negative"}, {"measurement": "mutagenic call", "setting": "Test System: AMES SALMONELLA TYPHIMURIUM, Strain/Indicator: TA1537, Metabolic Activation: NONE, Method: PREINCUBATION", "result": "inactive; negative"}, {"measurement": "mutagenic call", "setting": "Test System: AMES SALMONELLA TYPHIMURIUM, Strain/Indicator: TA1537, Metabolic Activation: RAT LIVER S-9, PHENOBARBITAL AND BETA-NAPHTHOFLAVONE (40%), Method: GAS EXPOSURE", "result": "inactive; negative"}, {"measurement": "mutagenic call", "setting": "Test System: AMES SALMONELLA TYPHIMURIUM, Strain/Indicator: TA1537, Metabolic Activation: RAT, LIVER, S-9, AROCLOR 1254 (10%), Method: PREINCUBATION", "result": "inactive; negative"}, {"measurement": "mutagenic call", "setting": "Test System: E.COLI, Strain/Indicator: WP2UVRA, Metabolic Activation: NONE, Method: GAS EXPOSURE", "result": "inactive; negative"}, {"measurement": "mutagenic call", "setting": "Test System: E.COLI, Strain/Indicator: WP2UVRA, Metabolic Activation: RAT LIVER S-9, PHENOBARBITAL AND BETA-NAPHTHOFLAVONE (40%), Method: GAS EXPOSURE", "result": "inactive; negative"}, {"measurement": "mutagenic call", "setting": "Test System: Mouse lymphoma, Strain/Indicator: L5178Y (tk+/tk-), Metabolic Activation: None, Method: Suspension/plate", "result": "inactive; negative"}, {"measurement": "mutagenic call", "setting": "Test System: Mouse lymphoma, Strain/Indicator: L5178Y (tk+/tk-), Metabolic Activation: Rat, Liver, S-9, Aroclor 1254, Method: Suspension/plate", "result": "inactive; inconclusive (previous evaluation negative)"}]}, {"compound": "CC(COc1ccccc1)N(CCCl)Cc1ccccc1", "note": "(stereo not drawn)", "values": [{"measurement": "mutagenic call", "setting": "Test System: AMES SALMONELLA TYPHIMURIUM, Strain/Indicator: TA97, Metabolic Activation: HAMSTER, LIVER, S-9, AROCLOR 1254 (10%), Method: PREINCUBATION", "result": "active; positive"}, {"measurement": "mutagenic call", "setting": "Test System: AMES SALMONELLA TYPHIMURIUM, Strain/Indicator: TA97, Metabolic Activation: NONE, Method: PREINCUBATION", "result": "active; positive"}, {"measurement": "mutagenic call", "setting": "Test System: AMES SALMONELLA TYPHIMURIUM, Strain/Indicator: TA97, Metabolic Activation: RAT, LIVER, S-9, AROCLOR 1254 (10%), Method: PREINCUBATION", "result": "active; positive"}, {"measurement": "mutagenic call", "setting": "[1]", "result": "active; positive"}, {"measurement": "mutagenic call", "setting": "[2]", "result": "active; positive"}, {"measurement": "mutagenic call", "setting": "[3]", "result": "active; positive"}, {"measurement": "mutagenic call", "setting": "[4]", "result": "active; positive"}, {"measurement": "mutagenic call", "setting": "[5]", "result": "active; positive"}, {"measurement": "mutagenic call", "setting": "[6]", "result": "active; positive"}, {"measurement": "mutagenic call", "setting": "[7]", "result": "active; positive"}, {"measurement": "mutagenic call", "setting": "[8]", "result": "inactive; negative"}, {"measurement": "mutagenic call", "setting": "[9]", "result": "active; positive"}]}, {"compound": "O=C(O)Cc1c[nH]c2ccccc12", "values": [{"measurement": "mutagenic call", "setting": "Test System: AMES SALMONELLA TYPHIMURIUM, Strain/Indicator: TA97A, Metabolic Activation: NONE, Method: STANDARD PLATE", "result": "inactive; negative"}, {"measurement": "mutagenic call", "setting": "Test System: AMES SALMONELLA TYPHIMURIUM, Strain/Indicator: TA97A, Metabolic Activation: RAT, LIVER, S-9, AROCLOR 1254, Method: STANDARD PLATE", "result": "inactive; negative"}, {"measurement": "mutagenic call", "setting": "Test System: AMES SALMONELLA TYPHIMURIUM, Strain/Indicator: TA98, Metabolic Activation: NONE, Method: STANDARD PLATE", "result": "inactive; negative"}, {"measurement": "mutagenic call", "setting": "Test System: AMES SALMONELLA TYPHIMURIUM, Strain/Indicator: TA98, Metabolic Activation: RAT LIVER S-9, 3-METHYLCHOLANTHRENE AND PHENOBARBITAL, Method: STANDARD PLATE", "result": "inactive; negative"}, {"measurement": "mutagenic call", "setting": "Test System: AMES SALMONELLA TYPHIMURIUM, Strain/Indicator: TA98, Metabolic Activation: RAT, LIVER, S-9, AROCLOR 1254, Method: STANDARD PLATE", "result": "inactive; negative"}, {"measurement": "mutagenic call", "setting": "[5]", "result": "inactive; negative"}, {"measurement": "mutagenic call", "setting": "[10]", "result": "inactive; negative"}, {"measurement": "mutagenic call", "setting": "Test System: AMES SALMONELLA TYPHIMURIUM, Strain/Indicator: TA100, Metabolic Activation: RAT LIVER S-9, 3-METHYLCHOLANTHRENE AND PHENOBARBITAL, Method: STANDARD PLATE", "result": "inactive; negative"}, {"measurement": "mutagenic call", "setting": "[11]", "result": "inactive; negative"}, {"measurement": "mutagenic call", "setting": "Test System: AMES SALMONELLA TYPHIMURIUM, Strain/Indicator: TA1535, Metabolic Activation: NONE, Method: STANDARD PLATE", "result": "inactive; negative"}, {"measurement": "mutagenic call", "setting": "Test System: AMES SALMONELLA TYPHIMURIUM, Strain/Indicator: TA1535, Metabolic Activation: RAT, LIVER, S-9, AROCLOR 1254, Method: STANDARD PLATE", "result": "inactive; negative"}, {"measurement": "mutagenic call", "setting": "Test System: AMES SALMONELLA TYPHIMURIUM, Strain/Indicator: TA1537, Metabolic Activation: NONE, Method: STANDARD PLATE", "result": "inactive; negative"}, {"measurement": "mutagenic call", "setting": "Test System: AMES SALMONELLA TYPHIMURIUM, Strain/Indicator: TA1537, Metabolic Activation: RAT, LIVER, S-9, AROCLOR 1254, Method: STANDARD PLATE", "result": "inactive; negative"}, {"measurement": "mutagenic call", "setting": "Test System: AMES SALMONELLA TYPHIMURIUM, Strain/Indicator: TA1538, Metabolic Activation: NONE, Method: STANDARD PLATE", "result": "inactive; negative"}, {"measurement": "mutagenic call", "setting": "Test System: AMES SALMONELLA TYPHIMURIUM, Strain/Indicator: TA1538, Metabolic Activation: RAT, LIVER, S-9, AROCLOR 1254, Method: STANDARD PLATE", "result": "inactive; negative"}]}, {"compound": "C[N+](C)(C)CC(=O)O", "values": [{"measurement": "mutagenic call", "setting": "[10]", "result": "inactive; negative"}, {"measurement": "mutagenic call", "setting": "[11]", "result": "inactive; negative"}]}]}
